Assays:
[1] = system: human glioma U251 cells (Sig1-R transfected cells); experiment: intracellular ATP concentration in human glioma U251 cells; type: cell-based; conditions: fluorescence measurement 6 hours after administration
Experimental: To cultured human glioma US251 cells (Sig1-R transfected cells) were added Specimens 1 and 2, respectively and intercomparison was performed between intracellular ATP concentration after addition and that without addition (Cont.). […] It is to be noted that fluorescence measurement was performed 6 hours after the administration of the specimens.

[2] = system: mitochondrial calcium concentration; experiment: mitochondrial calcium concentration in brain slice preparations exposed to 80K ACSF, 24 h after subcutaneous administration; type: in vivo, mouse (C57B/6NL)
Experimental: (§1) Formation of brain slice preparation and measurement of calcium concentration: Used was a whole brain half-cut preparation obtained by cutting a whole brain slice (300 μm) of a mouse (C57B/6NL), pretreated with Specimen 1 for 24 hours by subcutaneous administration, at a median line. […] The resulting preparation was placed in a chamber provided on a stage of an inverted fluorescence microscope (Olympus IX71), covered with a piece of black cotton, fixed with a platinum ring, and refluxed (70 ml/hr) in ACSF aerated with 95% O2 and 5% CO2. A fluorescent image of the preparation was acquired using a 4× objective lens and respective images of the hippocampal ventral part and cerebral cortex temporal region were obtained in one screen. For the measurement of a mitochondrial calcium concentration, a change in intensity of red fluorescence (>600 nm) caused by excitation light at 580 nm was determined and for the measurement of a cytoplasmic calcium concentration, a ratio of fluorescence (>500 nm) between excitation at 360 nm and that at 380 nm was determined. A hippocampal CA1 site and a cerebral cortex were used as two regions of interest (ROI).
(§2) In water was dissolved β-NMN to give a 10 mg/kg, 30 mg/kg, or 100 mg/kg solution; Specimen 1 was dissolved in an alcohol to give a solution of 1 mg/ml and then the resulting solution was diluted with water to give a 0.01 mg/kg, 0.1 mg/kg or 1.0 mg/kg solution; and they were subcutaneously administered to mice 24 hours before the formation of the preparation (0.1 ml/10 g).
(§3) In the present test, an operation of exposing the brain preparations formed from mice administered with two drugs having respective concentrations to isotonic 80 mM KCl-ACSF (artificial cerebrospinal fluid) for 5 minutes and then returning them in normal ACSF for 5 minutes was performed three successive times to give a severe calcium load to the preparations. Variations in cytoplasmic and mitochondrial calcium concentrations at that time were measured.
FIG. 31A to FIG. 32C show the quantification results of the effects of β-NMN and Specimen 1 (TND1128) at each concentration. In FIG. 31A to FIG. 32C, FIG. 31A and FIG. 32A show the results of calculating a mitochondrial calcium concentration, as AUC (Area under the curve), for 35 minutes from 5 minutes after starting of the experiment by administration to three times exposure to 80K-ACSF and 5-minute washing (refer to FIG. 37). FIG. 31B. FIG. 31C, FIG. 32B and FIG. 32C show the drug effects on 5-minute 80K administration and 5-minute subsequent washing (1st: from 5 minutes to 15 minutes, 2nd: from 15 minutes to 25 minutes, and 3rd: from 25 minutes to 35 minutes) in the cerebral cortex (CTX) and the hippocampus (CA1), respectively (refer to FIG. 37). A significant difference test was performed using Tukey's method.

[3] = lipophilicity, hydrophobicity and stability; type: physicochemical
[4] = system: cytoplasmic calcium concentration; experiment: cytoplasmic calcium concentration in brain slice preparations exposed to 80K ACSF, 24 h after subcutaneous administration; type: in vivo, mouse (C57B/6NL)
Experimental: as §1, §2, §3

SIRT1 = SIRT1 in treated nematode (preliminary experiment); type: in vivo; conditions: nematode treated for 24 hours
[5] = system: human-derived neuroblast (Neuroblastoma) SH-SY5Y strain; experiment: fluorescence measurement of intracellular/extracellular ATP concentration in SH-SY5Y cultured cells; type: cell-based; conditions: for intracellular ATP production (fluorescence intensity): in the cells
Experimental: After the addition of Specimen 1 to cultured cells of a human-derived neuroblast (Neuroblastoma) SH-SY5Y strain, fluorescence measurement of an intracellular/extracellular ATP concentration was performed.

hippocampal neurons [6] = experiment: cultured hippocampal neurons, initial stage of growth: axons, dendrites, excitatory synapses; type: cell-based, ICR mouse
Experimental: Hippocampal neurons were collected from a juvenile (0 day after birth) ICR mouse brain and neurons were cultured on a culture dish.
Specimen 1 was added once to the cells in the initial stage of growth (on culture day 1) and after three days (on culture day 4), the number of neuron axons, dendrites, and growing synapses of the hippocampal neurons (neurons) was quantified. Specimen 1 (0.1 μM, 0.3 μM, 1.0 μM) was added once on culture day 1. Axon and Dendrite were immunostained with a tau antibody and a MAP2 antibody, respectively, three days after the addition (on culture day 4) and morphology thereof was observed.
An experiment was performed by drawing concentric circles (not shown) at an interval of 10 μm with a soma as a center and the number of axons crossing the circles was measured.
The dendrite was immunostained with a MAP2 antibody on culture day 4 and the number of branches of the dendrite was quantified. An experiment was performed by drawing concentric circles (not shown) at an interval of 10 μm with a soma as a center and the number of dendrites crossing the circles was counted.
Then, excitatory synapses on culture 14 day were immunostained with a VGLUT1 antibody and the number of synapses was quantified.

hippocampal neurons [7] = experiment: mature cultured hippocampal neurons: dendrite branches; type: cell-based, ICR mouse
Experimental: As in Example 4, hippocampal neurons were collected from a juvenile (0 day after birth) ICR mouse brain and the neurons were cultured on a culture dish.
Specimen 1 was administered once to the mature cultured hippocampal cells (on culture day 11) and three days later (on culture day 14), the neuron axons and dendrites of the hippocampal neurons (neurons) were observed.
Concentric circles were drawn at an interval of 10 μm with a soma as a center and the number of dendrites crossing the circles was measured.

[8] = system: astrocytes, one of glial cells of the central nerve system; experiment: fluorescence measurement of ATP amount in cultured astrocytes; type: cell-based; conditions: 1 μM
Experimental: Specimen 1 was added to astrocytes, one of glial cells of the central nerve system, after culturing and the fluorescence measurement results are shown in FIG. 2A and FIG. 2B.

[9] = system: intracerebral hemorrhage model rats; experiment: intracerebral hemorrhage model rats, amount of exercise; type: in vivo, Wistar rats; conditions: 100 μg/kg injected into the brain spot one hour after collagenase; hemorrhage day 1 and one week after
Experimental: Intracerebral hemorrhage model rats were prepared by making a small hole into the skull of adult Wistar rats (weight: from 200 to 230 g) under inhalation anesthesia, administering 1.2 μl of a physiological saline to the right brain striatum in Control group and a physiological saline comprising 0.24 U collagenase (type IV) to that of a hemorrhage group.
In order to confirm the brain cell protective action of Specimen 4 for the intracerebral hemorrhage model rats, 100 μg/kg of Specimen 4 was injected into a spot (white lozenge in the drawing) one hour after administration of collagenase, and exercise footprints of the rat were quantitatively measured. (A: Control, B: Hemorrhage group. Pay attention to color change (to black) after hemorrhage).
For the measurement of the amount of exercise, the moving image of the rats was photographed for 5 minutes. The free movement (exercise distance and exercise speed) during the latter 3 minutes of the photographing time was analyzed.

[10] = 0.3 μM and 1.0 μM, culture day 4

## CCn1c2nc(=O)n(C)c(=O)c-2cc2ccccc21 [Specimen 1]
[1]
  ATP production amount (intracellular ATP concentration vs without addition): significantly increased the ATP production amount
[2]; 100 mg/kg β-NMN, 1 mg/kg Specimen 1
  physiological response of the preparations under 80K-ACSF stimulation (mitochondrial and cytoplasmic Ca2+ variations): the preparations can maintain a markedly stable physiological response
[2]; 24 hours after administration
  mitochondrial protective function / function stabilizing effect: significant mitochondrial function stabilizing effect
[2]; s.c. 24 h pretreatment
  effective amount: ≤ 1.0 mg/kg
  strength of mitochondrial Ca2+ concentration suppressing effect relative to β-NMN, judged from the effective concentration: 100 times
[2]; s.c. 24 h pretreatment, within the dose range studied, Tukey's method
  mitochondrial calcium concentration as AUC, cerebral cortex (CTX) and hippocampus (CA1): a dose response relationship
[2]; s.c. 24 h pretreatment, β-NMN 10, 30, 100 mg/kg, Specimen 1 0.01, 0.1, 1.0 mg/kg
  mitochondrial Ca2+ increase on three times 80K ACSF exposure (time course): dose-dependently suppress a mitochondrial Ca^2+ increase
[3]
  hydrophobicity: highly hydrophobic
[3]; chemical stability
  stability: stable
[4]; s.c. 24 h pretreatment
  effect on drastic increase in cytoplasmic Ca2+ concentration caused by 80K-ACSF: no significant effect
[4]; s.c. 24 h pretreatment, all doses
  quantified cytoplasmic Ca2+ (AUC), significant difference: a significant difference was not observed
[4]; β-NMN 30 or 100 mg/kg, Specimen 1 0.01 to 1.0 mg/kg, s.c. 24 h
  recovery of cytoplasmic calcium concentration variations at each 80K-ACSF administration: show similar recovery
SIRT1
  SIRT1: significant increase
[5]; 1 μM, after 12 hours
  intracellular ATP production (fluorescence intensity): the effect disappears after 12 hours
[5]; 1 μM, immediately after addition
  intracellular ATP production (fluorescence intensity): an increase in ATP production (increase in fluorescence intensity) is observed for 5 hours
[5]; 1 μM, outside the cells
  extracellular ATP production / ATP concentration: an increase in ATP production is observed for 5 hours
[5]; treatment with the specimen
  morphological change of the cultured cells: no morphological change of the cultured cells
Hippocampal neurons [6]; [10]
  drug efficacy on axons at 0.3 μM and 1.0 μM: almost similar maximum drug efficacy
  drug efficacy on dendrites at 0.3 μM and 1.0 μM: almost similar maximum drug efficacy
Hippocampal neurons [6]; 0.3 μM, VGLUT1 antibody, culture day 14
  number of excitatory synapses: significantly increased the number of excitatory synapses to the maximum
Hippocampal neurons [6]; 0.1, 0.3, 1.0 μM added once on culture day 1, MAP2 antibody, culture day 4
  dendrite extension and number of branches: concentration-dependently extended the dendrite and increased the number of branches thereof
Hippocampal neurons [6]; 0.1, 0.3, 1.0 μM added once on culture day 1, tau antibody, culture day 4
  elongation/growth of neuron axons and number of branches: concentration-dependently increases the elongation/growth of neuron axons and the number of branches
Hippocampal neurons [7]; 0.3 μM and 1 μM, administered culture day 11, MAP2 antibody culture day 14
  number of dendrites in mature cultured cell: the number of dendrites tends to increase
Hippocampal neurons [7]; administered culture day 11, observed culture day 14
  increase in the number of dendrite branches, mature cells compared with culture day 4: an increase in the number of branches was not so more marked than that caused by the drug efficacy observed in the cells on culture day 4
[8]; 12 hours and 24 hours after administration
  ATP amount in the glial cells: significantly increased
[8]; astrocytes
  extracellular ATP amount: shows a similar tendency

## Cn1c(=O)nc2n(-c3ccccc3)c3cc(Cl)ccc3cc-2c1=O [Specimen 4]
[9]
  exercise distance: ameliorates an ischemic decrease
  exercise speed: ameliorates an ischemic decrease
